Patent publication US8524744B2, “Arylamine ketones, their preparation methods, the pharmaceutical composition containing them and their use” (Institute of Mataria Medica, Chinese Academy of Medical …, priority 2004, dated 2013)
pIC50: −log10 of the molar value. Where a name gives a salt, the structure may show the parent alone.

Experiments:
[1] = tested on: production of NO in macrophages from mouse peritoneal cavity; experiment: production of NO in macrophages from mouse peritoneal cavity (LPS and PAF); format: cell-based; conditions: Macrophage, costimulated by LPS (1×10^−9 mol·L^−1) and PAF (1×10^−6 mol·L^−1), 24 hr, read-out: IC50, inhibition of the production of NO
Method: 4% of sodium mercaptoethanol was injected into C57BL/6 mouse peritoneal cavity to induce macrophages. The cells in peritoneal cavity were collected after injection for 3-4 days. 500 μl of cells were inoculated in the well of 24 wells plate which was placed in the CO2 incubator at 37° C. for 2.5 hr to make the cells adherent. The cells were rinsed by 1640 culture media. 495 μl of 1640 media containing irritant and 5 μl the compound or solvent were added into each well. The plate was incubated for 24 hr. The supernatant was taken out and mixed with the same volume of Griess agent. The reaction fluid was kept at room temperature for 10 min and the optical density was measured at 550 nm. The numbers read was transferred into the content of NO.

[2] = tested on: production of TNF-α by macrophages from mouse peritoneal cavity; experiment: production of TNF-α by macrophages from mouse peritoneal cavity (LPS, L929 bioassay); format: cell-based; conditions: Macrophage, LPS 10 μg·ml^−1, 24 hr, read-out: IC50, inhibition of the production of TNF-α
Method: The macrophages from mouse peritoneal cavity were prepared as described before. 500 μl of cells were inoculated in 48-well plate which was incubated with 5% CO2 at 37° C. for 2.5 hr. The compounds and LPS (final concentration: 10 μg·ml^−1) were added into each well of the plate. After incubating for 24 hr the supernatant was collected. The content of TNF-α was determined by following method. 100 μl of L929 cells (2×10^5cells·ml^−1) with 100 μl of RPMI-1640 or supernatant collected above were inoculated into 96-well plate which incubated under 5% CO2 at 37° C. for 20 hr. The supernatant was discarded. 200 μl of 0.5% crystal violet was added into each well. 10 min later crystal violet outside of the cells was rinsed using normal saline. The cells were dried under room temperature. 100 μl of 10% SDS was added into each well. After the cells were lysed completely the optical density was measured at 570 nm. The well of 1640 media was as the control, The content of TNF-a was evaluated by the percentage of L929 cells survival.

[3] = tested on: mouse paw swelling induced by carrageenan; experiment: mouse paw swelling induced by carrageenan; format: in vivo; conditions: orally, 50 mg·kg^−1, Kunming mice
Method: Kunming mice (male, 18-22 g) were randomly divided into two groups (treatment and control) with 10 animals for each group. The animals were orally administrated with compounds or solvent, respectively. 1 hr later, 50 μl of 1% carrageenan was intracutaneously injected into the sole of right posterior foot. After 4 hr the animals were sacrificed by displacing cervical vertebra. The two paws were cut off at ankle joint and weighed. The swelling was evaluated by the difference of the weights of two paws.

[4] = tested on: cutaneous vascular permeability in mice induced by PAF; experiment: increase of cutaneous vascular permeability in mice induced by PAF; format: in vivo, mouse; conditions: orally, 50 mg·kg^−1, Kunming mice
Method: Kunming mice (male, 18-22 g) were randomly divided into two groups (treatment and control) with 10 animals for each group. The animals were orally administrated with the compounds or solvent, respectively. 1 hr later, 0.25 ml of 1% evans blue dye was injected into the tail vein. After 10 min, 0.1 ml of PAF (1×10^−8 mol·L^−1) was intracutaneously injected into the dorsal skin shaved. 1 hr later, the animals were sacrificed by cervical vertebra displacement. The skin with blue spot was cut off. The evans blue dye was extracted by 0.8 ml of mixed solution of acetone and normal saline (7:3). The supernatant was transferred into the 96-well plate. The optical density was measured at 620 nm.

[5] = tested on: rat granuloma induced by cotton ball; experiment: rat granuloma induced by cotton ball; format: in vivo; conditions: orally, 100 mg·kg^−1, 7 days, Wistar rats
Method: Wistar rats (male, 165±15 g) were randomly divided into two groups (treatment and control) with 10 animals for each group. 10 mg of steriled cotton ball was planted into the two groins of the rat under the anaesthetized by ether. The animals were orally administrated with the compound for 7 days. At seventh day the cotton ball was taken out, dried by the oven and weighed. The hyperplasia of granuloma was evaluated by the increase of weight of dried cotton ball.

[6] = tested on: rat arthritis induced by type II collagen; experiment: rat arthritis induced by type II collagen; format: in vivo; conditions: 100 mg · kg^−1 × 13 d, orally, Wistar rat
Method: (§1) 0.1 ml of type II H collagen (2 mg·ml^−1) was intracutaneously injected into the hind foot of Wistar rat (male, 100±10 g) (d0). Seven days later 0.1 ml of type II collagen was intracutaneously injected into the root of tail. At 19th day (d19) the animals inflamed were selected to supply the experiment and randomly divided into two groups. […] The perimeter of the ankle joint of two hind feet, weight of body was measured and the systemic inflammation (including the toes of front and hind feet, ears and tails) was judged by scoring every 3 days. At 41th day 40 μl of 0.2% type II collagen was intracutaneously injected into the right ear. Twenty-four hr later the edema level was evaluated by weighing the ponderance of ear piece (diameter: 8 mm). At 42th day the blood was collected by decapitating. The serum was separated by centrifugating. The contents of antibody for anti-type II collagen, cytokine TNF-α, IL-1β in serum were determined by ELISA kit.

[7] = tested on: delayed hypersensitivity in rats; experiment: delayed hypersensitivity in rats (type II collagen ear challenge); format: in vivo, rat; conditions: Dose 100 mg · kg^−1 × 13 d, orally
Method: as §1

TNF-α in serum = TNF-α in serum of rat with arthritis induced by type II collagen (ELISA); format: in vivo; conditions: Dose 100 mg · kg^−1 × 13 d, orally
Method: as §1

IL-1β in serum = IL-1β in serum of rat with arthritis induced by type II collagen (ELISA); format: in vivo; conditions: Dose 100 mg · kg^−1 × 13 d, orally
Method: as §1, with “At 19th day (d19) the animals inflamed were selected to supply the experiment and randomly divided into two groups.” left out

CCOC(=O)C1CCN(CCC(=O)/C=C/c2ccc(Cl)cc2)CC1 [Compound 3, 5-[(4-Ethoxycarbonyl)piperidyl]-1-(4-chlorophenyl)-1-penten-3-one hydrochloride]
pIC50 [1]: 6.65
pIC50 [2]: 7.47
Inhibition (%) of mouse paw swelling [3]: 32.52%
Inhibition (%) of increase of cutaneous vascular permeability [4]: 53.23%
Inhibition (%) of rat granuloma [5]: 37.93%
Inhibition (%) Score for systemic inflammation [6]: 52.6%
Inhibition (%) Swelling of left ankle joint [6]: 67.5%
Inhibition (%) Swelling of right ankle joint [6]: 68.8%
Inhibition (%) of delayed hypersensitivity [7]: 21.2%
inhibition (%) of production of TNF-α in serum (TNF-α in serum): 49.3%
Inhibition (%) of production of IL-1β in serum (IL-1β in serum): 45.7%
